Laboratory results taken from patent US8329160B2, “Interferon alpha sequential regimen for treating cancers” (HI-Stem, priority 2007, dated 2012).

Experiments:
HSCs [1] = test: Survival of mice under repeated 5FU after polyIC priming (IFN alpha pulse); format: in vivo
Procedure: Wild-type C57B1/6 and IFNAR−/− mice were treated as follows: mice were injected with […] mouse polyIC (Invivogen) twice (polyIC is a double stranded RNA mimetic strongly inducing IFNα/b), the lag time between the two injections being 48 h. PolyIC injections are used in this experiment as IFN alpha “pulse”. Mice that were only treated with 5FU without priming injections of polyIC were used as controls.
5-Fluoro-uracil (5FU) was injected (150 mg/kg, Sigma) at different times after the last polyIC injection: 0 h (same time as last polyIC injection); 24 h, 48 h, 72 h, 5 days and 7 days. The proliferation rate of cells at time of 5FU injection was analyzed by BrdU analysis of KLS cells as described in the above examples. Single 5FU injections were repeated every 7 days. The survival of the mice was monitored for a period of 20 days.

[2] = test system: hematopoietic stem cells (HSCs) (lineage-CD117+Sca1+); test: BrdU uptake (proliferation rate) of KLS hematopoietic stem cells in treated mice; format: in vivo
Procedure: Wild-type C57B1/6 mice were treated with IFNα which was obtained as decribed in the literature (Le Bon et al., 2003, Nat. Immunol. 4(10):1009-15). at 0 h and 24 h, respectively with 10×10^3 U/mouse, and were then treated at 36 h with Bromodeoxyuridine (BrdU) at 360 μg/mouse for cell detection. Mice which were only injected with BrdU were used as control. Bone marrow was then taken from the long bones of hindlegs and prepared by standard procedures (Wilson et al., 2004, Genes & Dev 18; 2747-2763). Bone marrow cells were then stained with a cocktail of conjugated antibodies (Bioscience) against mice lineage markers (CD4, CD8, CD11b, Gr1, Ter119, B220), CD117 (c-kit), Sca1 (Ly-6A/E), CD34, CD135, CD48 or CD150). Cells were then fixed. BrdU uptake was analyzed using the BrdU staining kit (BD Biosciences).
Five and six-color flurorescent-activated cell sorting (FACS) analysis (FITC, PE, PE-Cy5, PE-Cy7, APC, APC-Cy7) were performed using a FACS Canto flow cytometer (Becton Dickinson) as described in the literature (Wilson et al., 2004, above). Data were analyzed using FlowJo (Tree Star, Inc.; Ashland, USA software).
Percentages of BrdU positive KLS-HSCs cells (lineage CD117+Sca1+) were determined as a measurement of the proliferation rate of these cells. The same BrdU analyses were performed on subpopulations of HSCs.

[3] = test system: dormant HSCs (KLS CD150+CD48-CD34-); test: BrdU pulse-chase, label-retaining (dormant) long-term HSCs; format: in vivo, mice
Procedure: After a period of permanent BrdU labeling for 10 days, mice were kept without BrdU for 70 days. 14 days before the analysis, the mice were either treated three times with polylC or with PBS. 10 days later (and 70 days after the last BrdU injection) three HSC populations containing an increasing percentage of dormant HSCs were isolated and analysed for the presence of BrdU+label-retaining cells (LRCs), which represent dormant HSCs.
C57B1/6 mice and IFNAR−/− mice were given BrdU (0.8 mg/ml; Sigma) in the drinking water for 10 days. After this BrdU pulse, mice were left for a chase of 10 weeks. Then, mice were twice injected with IFNα at a concentration of 10×10^3 U/mouse each (48 h gap between the 2 injections) or left untreated. BrdU uptake was then analyzed 10 days after the last IFNα injection. After this BrdU pulse-chase experiment in wild-type mice, about 15% of the long-term HSCs (KLS CD150+CD48−CD34−) are still labeled with BrdU (label retaining cells-LRCs). […] This was not the case with long-term HSCs lacking the IFN-receptor (in IFNAR−/− mice) showing that this effect is indeed mediated by Interferon signaling (FIG. 1D).

HSCs [4] = test: Mixed bone marrow chimeras (wt / IFNAR-/-), BrdU uptake in LSK cells; format: in vivo, mice; conditions: IFNα 10×10^3 U/mouse
Procedure: The different mice were treated with IFNα (10×103 U/mouse) in comparison with untreated wt mice (C) as described in Example 3. FIG. 2B represents the BrdU uptake in wt (CD45.1) and IFNAR−/− (CD45.2) LSK cells in the mixed bone marrow chimeras in response to treatment with IFNα.
To investigate whether HSCs respond directly to IFNα in vivo, mixed bone marrow “chimeras” comprising various ratios of wild-type (wt) and IFNAR−/− (IFNRKO) bone marrow cells were treated with IFNα (10×10^3 U/mouse) in comparison with untreated wt mice (C) (FIG. 2A).

Molecule: O=c1[nH]cc(F)c(=O)[nH]1 [5FU, 5-Fluoro-uracil]
- survival of mice under repeated 5FU treatment without polyIC priming (HSCs [1]; 5FU 150 mg/kg every 7 days, 20 days): do survive

Molecule: IFNα
- dose dependence of increase in proliferation ([2]; different doses of IFNα (U/g of mouse)): dose-dependent
- proliferation in subpopulations of HSCs (long-term HSCs, short-term HSCs, MPPs) ([2]; wild-type C57B1/6 mice, after IFNα treatment): increase in proliferation in all subpopulations of HSCs
- proliferation rate of HSCs (percentage of BrdU positive KLS cells) ([2]; wild-type C57B1/6 mice, IFNα 10×10^3 U/mouse at 0 h and 24 h, BrdU at 36 h, untreated control 23%): 63%
- absolute cell numbers of HSCs ([2]; wild-type mice, after IFNα treatment): increase in absolute cell numbers
- reduction of LRC+ long-term HSCs (activation of dormant HSCs) ([3]; IFNAR-/- mice (HSCs lacking the IFN-receptor)): not the case
- number of LRC+ long-term HSCs (BrdU label retaining cells) ([3]; wild-type mice, 2 injections IFNα 10×10^3 U/mouse 48 h apart, analysed 10 days after last injection, untreated about 15% LRC): dramatically reduced
- activation of HSCs in mixed wt / IFNAR-/- bone marrow chimeras (HSCs [4]): direct and an indirect activation

Molecule: polyIC [reference compound]
- increase of HSC proliferation rate (BrdU uptake) ([2]; IFNAR-/- mice, polyIC once at 10 μg/g): not seen
- percentage of BrdU+-LRCs in HSC populations ([3]; mice treated three times with polyIC vs PBS, 70 days after last BrdU): strongly reduced
- effect of polyIC priming on survival under 5FU (HSCs [1]; IFNAR-/- mice): no effect on the survival
- survival of mice (lethality by elimination of all HSCs) (HSCs [1]; wild-type C57B1/6, polyIC twice (48 h apart) prior to 5FU 150 mg/kg repeated every 7 days, 20 days monitoring): efficient lethality
